Assays:
Type in all cases: in vivo
[1] = tested on: Puccinia recondita f. sp. tritici (PUCCRT); assay: Brown Rust of Wheat Drop Line Test; conditions: Drop Line Test 0.5 μg/leaf, 2 microliter drop on wheat leaf
Protocol: (§1) Brown Rust of Wheat (Puccinia recondita f. sp. tritici-PUCCRT) (1 DP) Wheat (cultivar Monon) was grown in plastic pots (6.2 cm×8.75 cm) containing 50 percent mineral soil, 50 percent Metro-Mix 360 (W.R Grace and Co.) until the seedlings were 10-20 cm tall. These plants were then sprayed to runoff with the test compound at a rate of 200 ppm. After 24 hours the test plants were inoculated by spraying with an aqueous spore suspension of Puccinia recondita f. sp. tritici (PUCCRT). The plants were then transferred to a dew chamber for 24 hours, then to the greenhouse until disease developed on the untreated control plants. In Example 3, a Drop Line Test was used, wherein instead of spraying the plant to runoff, a 2 microliter drop was placed on the wheat leaf and observed for disease control.

[2] = tested on: Plasmopara viticola (PLASVI); assay: Downy Mildew of Grape one day protectant (1DP); conditions: grape (Carignane), sprayed to runoff, rate 200 ppm
Protocol: Final treatment volumes were obtained by adding 0.1 percent aqueous Ethomeen T25 or 0.1 percent aqueous Spraymate X77+0.1 percent wt./vol. ammonium sulfate^+. Downy Mildew of Grape (Plasmopara viticola-[…]) Vines (cultivar Carignane) were grown from seed in a soilless peat-based potting mixture “Metro-Mix 360” (W.R Grace and Co.) until the seedlings were 10-20 cm tall. These plants were then sprayed to runoff with the test compound at a rate of 200 ppm. After 24 hours the test plants were inoculated by spraying with an aqueous sporangia suspension of Plasmopara viticola ([…]). The plants were then transferred to a dew chamber for 24 hours, then to the greenhouse until disease developed on the untreated control plants.

[3] = tested on: Puccinia recondita f. sp. tritici (PUCCRT); assay: Brown Rust of Wheat one day protectant (1DP); conditions: wheat (Monon), sprayed to runoff, rate 200 ppm
Protocol: as §1, with “Final treatment volumes were obtained by adding 0.1 percent aqueous Ethomeen T25 or 0.1 percent aqueous Spraymate X77+0.1 percent wt./vol. ammonium sulfate^+. Brown” for “Brown”, “plants.” for “plants. In Example 3, a Drop Line Test was used, wherein instead of spraying the plant to runoff, a 2 microliter drop was placed on the wheat leaf and observed for disease control.”

[4] = tested on: Septoria tritici (SEPTTR); assay: Speckled Leaf Blotch of Wheat one day protectant (1DP); conditions: wheat (Monon), sprayed to runoff, rate 200 ppm
Protocol: Final treatment volumes were obtained by adding 0.1 percent aqueous Ethomeen T25 or 0.1 percent aqueous Spraymate X77+0.1 percent wt./vol. ammonium sulfate^+. Speckled Leaf Blotch of Wheat (Septoria tritici-[…]) Wheat (cultivar Monon) was grown in plastic pots (6.2 cm×8.75 cm) containing 50 percent mineral soil, 50 percent Metro-Mix 360 (W.R Grace and Co.) until the seedlings were 10-20 cm tall. These plants were then sprayed to runoff with the test compound at a rate of 200 ppm. After 24 hours the test plants were inoculated by spraying with an aqueous spore suspension of Septoria tritici ([…]). The plants were then transferred to a dew chamber for 24 hours, then to the greenhouse until disease developed on the untreated control plants.

[5] = tested on: Phytophthora infestans (PHYTIN); conditions: 1DP, tomato (rutgers), sprayed to runoff, rate 200 ppm
[6] = tested on: Leptosphaeria nodorum (LEPTNO); assay: Glume Blotch of Wheat one day protectant (1DP); conditions: wheat (Yuma), sprayed to runoff, rate 200 ppm
Protocol: Final treatment volumes were obtained by adding 0.1 percent aqueous Ethomeen T25 or 0.1 percent aqueous Spraymate X77+0.1 percent wt./vol. ammonium sulfate^+. Glume Blotch of Wheat (Leptosphaeria nodorum-[…]) Wheat (cultivar Yuma) was grown in plastic pots (6.2 cm×8.75 cm) containing 50 percent mineral soil, 50 percent Metro-Mix 360 (W.R Grace and Co.). until the seedlings were 10-20 cm tall. These plants were then sprayed to runoff with the test compound at a rate of 200 ppm. After 24 hours the test plants were inoculated by spraying with an aqueous spore suspension of Leptosphaeria nodorum ([…]). The plants were then transferred to a dew chamber for 24 hours, then to the greenhouse until disease developed on the untreated control plants.

[7] = tested on: Erysiphe graminis f. sp. tritici (ERYSGT); assay: Powdery Mildew of Wheat one day protectant (1DP); conditions: wheat (Monon), sprayed to runoff, rate 200 ppm
Protocol: Final treatment volumes were obtained by adding 0.1 percent aqueous Ethomeen T25 or 0.1 percent aqueous Spraymate X77+0.1 percent wt./vol. ammonium sulfate^+. Powdery Mildew of Wheat (Erysiphe graminis f. sp. tritici-[…]) Wheat (cultivar Monon) was grown in plastic pots (6.2 cm×8.75 cm) containing 50 percent mineral soil, 50 percent Metro-Mix 360 (W.R Grace and Co.) until the seedlings were 10-20 cm tall. These plants were then sprayed to runoff with the test compound at a rate of 200 ppm. After 24 hours the test plants were inoculated with Erysiphe graminis f. sp. tritici ([…]) by dusting spores from stock plants onto the test plants. The plants were then transferred to the greenhouse until disease developed on the untreated control plants.

For `C[C@H](N)C(=O)NC(CC(=O)O)(CC(=O)C1C(=O)N[C@@H](CN)C1=O)C(=O)O` (some centres unmarked) [Compound III], which “PUCCRT percent control of plant disease” value [1] is on record?
The value was “+ (+ = 30-74 percent control of plant disease)”.

How did the “PLASVI percent control of plant disease” value [2] turn out when `C[C@H](N)C(=O)NC(CC(=O)C1=C(O)[C@H](CN)NC1=O)(C(=O)O)C(=O)O` [Compound II] was run?
Its value is “− (− = 0-29 percent control of plant disease)”.

What about the “PUCCRT percent control of plant disease” value [3] of the same compound?
Its value is “++ (++ = 75-100 percent control of plant disease)”.

What about the “SEPTTR percent control of plant disease” value [4] of the same compound?
The value was “+ (+ = 30-74 percent control of plant disease)”.

What about the “PHYTIN percent control of plant disease” value [5] of the same compound?
Its value is “+ (+ = 30-74 percent control of plant disease)”.

And the “LEPTNO percent control of plant disease” value [6]?
Its value is “− (− = 0-29 percent control of plant disease)”.

What about the “ERYSGT percent control of plant disease” value [7] of the same compound?
The value was “− (− = 0-29 percent control of plant disease)”.

`NC[C@@H]1NC(=O)C(C(=O)CC(CC(=O)O)(NC(=O)[C@@H](N)CO)C(=O)O)=C1O` (some centres unmarked) [Compound VI] was tested. Which “PUCCRT percent control of plant disease” value [3] did it give?
The value was “++ (++ = 75-100 percent control of plant disease)”.

What about the “SEPTTR percent control of plant disease” value [4] of the same compound?
The value was “+ (+ = 30-74 percent control of plant disease)”.

What about the “PHYTIN percent control of plant disease” value [5] of the same compound?
The value was “− (− = 0-29 percent control of plant disease)”.

And the “LEPTNO percent control of plant disease” value [6]?
Its value is “− (− = 0-29 percent control of plant disease)”.

What about the “ERYSGT percent control of plant disease” value [7] of the same compound?
Its value is “− (− = 0-29 percent control of plant disease)”.

Which “PUCCRT percent control of plant disease” value [3] does the source give for `NC[C@@H]1NC(=O)C(C(=O)CC(CC(=O)O)(NC(=O)[C@@H](N)CO)C(=O)O)=C1O` (some centres unmarked) [Compound V] here?
Its value is “++ (++ = 75-100 percent control of plant disease)”.

And the “SEPTTR percent control of plant disease” value [4]?
Its value is “− (− = 0-29 percent control of plant disease)”.

What about the “PHYTIN percent control of plant disease” value [5] of the same compound?
Its value is “+ (+ = 30-74 percent control of plant disease)”.

What about the “LEPTNO percent control of plant disease” value [6] of the same compound?
Its value is “− (− = 0-29 percent control of plant disease)”.

What about the “ERYSGT percent control of plant disease” value [7] of the same compound?
Its value is “− (− = 0-29 percent control of plant disease)”.

From patent US20070173539A1, “Use of malonomicin and analogs in fungicidal applications” (priority 2006, published 2007)
